Data: patent US20240033228A1, “MESOPOROUS NANOPARTICLES SYSTEM TO INCREASE THE BIOFILM ERADICATION ACTIVITY BY MEANS OF THE CARRYING AND THE ADMINISTRATION OF AT LEAST ONE ACTIVE INGREDIENT AND RELATED PRODUCTION METHOD” (Brenta S.r.l., priority 2020, published 2024)
In brackets after ≈: the same amount, converted by molar mass.

Tests used:
[1] = water; cited from earlier work
[2] = footnote a not given; cited from earlier work
[3] = system: K. pneumoniae biofilm; test: Biofilm eradication test (MBEC assay with Calgary Biofilm Device); format: cell-based, Klebsiella pneumoniae
Procedure: The eradication tests were performed by adding free or loaded and/or supported API after the maturation of a biofilm for 24 hours. VCN was tested against S. aureus and NTF against […]. […] The log reduction was calculated according to the following formula: Log reduction (LR)=Log10(mean number of CPUs without […] number of CFUs after treatment), where CFUs are Colony Formation Units. Correspondingly, the eradication percentage P was calculated according to the following formula: […] Testing was performed by MBEC assay with Calgary Biofilm Device.

[4] = system: S. aureus biofilm; test: as above; format: cell-based, Staphylococcus aureus
Procedure: The eradication tests were performed by adding free or loaded and/or supported API after the maturation of a biofilm for 24 hours.
VCN was tested against S. aureus and NTF against T. pneumoniae.
The log reduction was calculated according to the following formula:
Log reduction (LR)=Log10(mean number of CPUs without reatment)/(mean number of CFUs after treatment), where CFUs are Colony Formation Units.
Correspondingly, the eradication percentage P was calculated according to the following formula: […]
Testing was performed by MBEC assay with Calgary Biofilm Device.

[5] = system: K. pneumoniae; test: Plate antimicrobial tests; format: cell-based; conditions: plate test; strain not given
Procedure: (§1) Plate antimicrobial tests were conducted to verify the inactivity of the nanoparticles and to confirm that the antibacterial activity is linked to being loaded with at least one API. The negative control corresponds to S. aureus and K. pneumoniae without API.

[6] = system: S. aureus; test: Plate antimicrobial tests; format: cell-based; conditions: plate test; strain not given
Procedure: as §1

For `COc1ccc2c(c1)c(CC(=O)O)c(C)n2C(=O)c1ccc(Cl)cc1` [INDM], the “Solubility H2O” value [1] is listed as 0.08 mg/mL (≈ 224 µM) and the LogP [2] is listed as 4.27.

For `O=C1CN(/N=C/c2ccc([N+](=O)[O-])o2)C(=O)N1` [NTF, Nitrofurantoin], the “Log Reduction Log (CFU/ml) ± SD” value ([3]; K. pneumoniae preformed biofilm (24 hours), highest concentration tested) is given as 2.5 ± 1.0 Log (CFU/ml), the “P (%) eradication percentage” value ([3]; K. pneumoniae preformed biofilm, P=[1−10^−LR]*100) is given as 99.7% and the “Solubility H2O” value [1] is given as 0.08 mg/mL (≈ 336 µM).

For `CN[C@H](CC(C)C)C(=O)N[C@H]1C(=O)N[C@@H](CC(N)=O)C(=O)N[C@H]2C(=O)N[C@H]3C(=O)N[C@H](C(=O)N[C@H](C(=O)O)c4cc(O)cc(O)c4-c4cc3ccc4O)[C@H](O)c3ccc(c(Cl)c3)Oc3cc2cc(c3O[C@@H]2O[C@H](CO)[C@@H](O)[C@H](O)[C@H]2O[C@H]2C[C@](C)(N)[C@H](O)[C@H](C)O2)Oc2ccc(cc2Cl)[C@H]1O` [VCN, vancomycin], the “Log Reduction Log (CFU/ml) ± SD” value ([4]; S. aureus preformed biofilm (24 hours), highest concentration tested) is listed as 2.0 ± 0.4 Log (CFU/ml), the “P (%) eradication percentage” value ([4]; S. aureus preformed biofilm, P=[1−10^−LR]*100) is listed as 99.0% and the “Solubility H2O” value [1] is listed as greater than 50 mg/mL.

In the case of `CC(=O)N[C@@H](CS)C(=O)O` [NAC, N-acetyl-L-cysteine], the “concentration below which no antibacterial activity is exhibited” value [5] is listed as 1 to 2 mg/mL, the “concentration below which no antibacterial activity is exhibited” value [6] is listed as 1 to 2 mg/mL and the LogP [2] is listed as −0.03.
